Laboratory results reported in ChEMBL document CHEMBL5055679, “Discovery of a Novel Androgen Receptor Antagonist Manifesting Evidence to Disrupt the Dimerization of the Ligand-Binding Domain via Attenuating the Hydrogen-Bonding Network Between the Two Monomers” (J Med Chem, 2021).
The source made the active and inactive calls. The calls are words filed in the database; no cut-off is given here.

Assays:
LNCaP [1] = test: Cytotoxicity against human LNCaP cells assessed as reduction in cell viability incubated for 72 hrs by MTT assay; assay type: functional, cell-based
PC-3 = test: Cytotoxicity against human PC-3 cells assessed as reduction in cell viability incubated for 72 hrs by MTT assay; assay type: functional, cell-based
DU-145 = test: Cytotoxicity against human DU-145 cells assessed as reduction in cell viability incubated for 72 hrs by MTT assay; assay type: functional, cell-based
LNCaP [2] = test: Inhibition of colony formation in human LANCaP cells after 2 weeks by crystal violet staining based assay; assay type: functional, cell-based; settings: dose 2-20 µM
[3] = biological target: T1, Androgen receptor (Homo sapiens) (UniProt P10275); test: Antagonist activity at androgen receptor in human LNCaP cells assessed as reduction in DHT-induced secreted PSA level; assay type: cell-based; settings: filed as antagonist, dose 0.1-10 µM, time 48.0 hrs
T1 sequence (whole entry): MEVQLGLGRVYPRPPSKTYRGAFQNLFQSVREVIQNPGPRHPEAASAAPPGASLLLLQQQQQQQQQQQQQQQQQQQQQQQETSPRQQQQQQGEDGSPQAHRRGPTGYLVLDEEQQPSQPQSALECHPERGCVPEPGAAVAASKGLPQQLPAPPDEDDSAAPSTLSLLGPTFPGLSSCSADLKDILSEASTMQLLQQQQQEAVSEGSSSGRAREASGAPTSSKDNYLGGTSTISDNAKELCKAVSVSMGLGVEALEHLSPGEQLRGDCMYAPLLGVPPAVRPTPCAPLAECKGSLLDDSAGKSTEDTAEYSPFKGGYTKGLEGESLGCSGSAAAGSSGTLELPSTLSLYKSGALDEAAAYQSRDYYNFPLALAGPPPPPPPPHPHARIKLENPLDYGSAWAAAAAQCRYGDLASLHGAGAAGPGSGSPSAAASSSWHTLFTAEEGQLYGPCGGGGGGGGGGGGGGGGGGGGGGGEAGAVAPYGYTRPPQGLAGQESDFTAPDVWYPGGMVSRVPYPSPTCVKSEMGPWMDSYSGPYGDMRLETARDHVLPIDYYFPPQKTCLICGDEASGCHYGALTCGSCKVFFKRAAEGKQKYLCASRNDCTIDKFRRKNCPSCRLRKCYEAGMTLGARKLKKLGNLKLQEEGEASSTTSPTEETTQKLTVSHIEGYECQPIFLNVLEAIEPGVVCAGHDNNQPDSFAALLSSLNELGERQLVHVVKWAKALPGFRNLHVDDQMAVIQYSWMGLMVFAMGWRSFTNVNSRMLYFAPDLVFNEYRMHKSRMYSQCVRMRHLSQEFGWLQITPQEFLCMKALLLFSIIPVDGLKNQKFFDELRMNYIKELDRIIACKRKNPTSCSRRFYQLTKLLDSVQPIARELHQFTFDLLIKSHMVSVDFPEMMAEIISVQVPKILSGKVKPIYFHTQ

[4] = biological target: T1, Androgen receptor (Homo sapiens); test: Antagonist activity at androgen receptor in human LNCaP cells assessed as reduction in DHT-induced AR protein expression at 0.1 to 10 uM after 48 hrs by Western blot analysis; assay type: cell-based; settings: dose 0.1-10 µM
[5] = biological target: T2, Mineralocorticoid receptor (Homo sapiens) (UniProt P08235); test: Antagonist activity at mineralocorticoid receptor in human PC-3 cells assessed as reduction in aldosterone-induced luciferase activity at 10 uM by dual-Glo luciferase assay; assay type: cell-based
T2 sequence (whole entry): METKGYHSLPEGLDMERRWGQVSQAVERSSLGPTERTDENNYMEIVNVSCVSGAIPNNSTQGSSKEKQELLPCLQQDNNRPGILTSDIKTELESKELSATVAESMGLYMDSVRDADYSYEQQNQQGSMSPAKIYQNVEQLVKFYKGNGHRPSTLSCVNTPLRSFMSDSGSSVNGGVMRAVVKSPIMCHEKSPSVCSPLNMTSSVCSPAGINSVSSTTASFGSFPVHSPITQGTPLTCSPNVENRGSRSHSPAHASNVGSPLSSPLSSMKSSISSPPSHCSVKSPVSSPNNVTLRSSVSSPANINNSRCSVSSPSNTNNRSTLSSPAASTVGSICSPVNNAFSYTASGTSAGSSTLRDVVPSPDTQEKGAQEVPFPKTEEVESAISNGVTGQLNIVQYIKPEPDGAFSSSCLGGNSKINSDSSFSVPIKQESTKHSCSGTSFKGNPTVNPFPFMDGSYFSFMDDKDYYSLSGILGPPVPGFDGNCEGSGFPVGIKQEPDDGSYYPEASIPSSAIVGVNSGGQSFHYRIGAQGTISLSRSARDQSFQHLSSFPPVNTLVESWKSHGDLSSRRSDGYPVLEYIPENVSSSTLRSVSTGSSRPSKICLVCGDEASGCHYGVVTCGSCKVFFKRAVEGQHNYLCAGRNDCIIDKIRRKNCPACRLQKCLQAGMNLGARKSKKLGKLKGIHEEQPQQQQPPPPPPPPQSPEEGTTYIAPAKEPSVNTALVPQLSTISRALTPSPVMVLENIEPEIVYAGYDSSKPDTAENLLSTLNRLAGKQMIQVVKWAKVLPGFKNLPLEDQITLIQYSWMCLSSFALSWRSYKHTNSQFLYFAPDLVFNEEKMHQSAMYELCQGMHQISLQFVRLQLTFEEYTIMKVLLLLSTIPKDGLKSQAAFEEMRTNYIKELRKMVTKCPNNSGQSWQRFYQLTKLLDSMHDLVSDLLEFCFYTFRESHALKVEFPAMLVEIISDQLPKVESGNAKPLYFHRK

[6] = biological target: T3, Glucocorticoid receptor (Homo sapiens) (UniProt P04150); test: Agonist activity at glucocorticoid receptor in human HeLa cells by dual-Glo luciferase assay; assay type: cell-based
T3 sequence (whole entry): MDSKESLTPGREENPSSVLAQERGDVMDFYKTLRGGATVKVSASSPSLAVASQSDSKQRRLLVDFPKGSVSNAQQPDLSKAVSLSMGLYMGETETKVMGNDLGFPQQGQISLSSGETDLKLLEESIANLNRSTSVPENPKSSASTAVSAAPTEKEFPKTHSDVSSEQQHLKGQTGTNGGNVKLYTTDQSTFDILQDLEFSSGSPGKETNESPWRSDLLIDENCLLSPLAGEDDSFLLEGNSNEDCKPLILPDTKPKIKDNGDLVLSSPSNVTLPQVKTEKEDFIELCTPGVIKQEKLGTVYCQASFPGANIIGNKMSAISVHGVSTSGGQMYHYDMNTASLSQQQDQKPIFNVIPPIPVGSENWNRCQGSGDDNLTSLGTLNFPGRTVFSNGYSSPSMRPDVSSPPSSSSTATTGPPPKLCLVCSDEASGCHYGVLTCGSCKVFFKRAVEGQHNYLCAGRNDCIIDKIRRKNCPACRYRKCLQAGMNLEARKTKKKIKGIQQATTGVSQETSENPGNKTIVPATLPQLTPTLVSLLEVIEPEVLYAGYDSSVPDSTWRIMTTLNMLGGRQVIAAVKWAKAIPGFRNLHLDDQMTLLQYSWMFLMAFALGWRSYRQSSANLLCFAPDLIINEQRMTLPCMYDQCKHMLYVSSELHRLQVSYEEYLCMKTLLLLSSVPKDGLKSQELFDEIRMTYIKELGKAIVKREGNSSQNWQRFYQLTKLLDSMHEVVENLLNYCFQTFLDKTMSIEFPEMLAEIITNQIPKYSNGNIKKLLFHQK

- Activity [3]: Dose-dependent effect
- Activity [4]: inactive
- Activity [5]: inactive
- Activity [6]: inactive
SMILES: O=c1cc(C(F)(F)F)c2ccc(OCc3ccc(Br)cc3)cc2o1
- Activity (LNCaP [1]): Active
- Activity (PC-3): Active
- Activity (DU-145): Active
- inhibition (LNCaP [2]): Dose-dependent effect
